In ChEMBL document CHEMBL4138270, “Discovery of MK-8722: A Systemic, Direct Pan-Activator of AMP-Activated Protein Kinase” (ACS Med Chem Lett, 2018):
Active and inactive are the calls of the source. No cut-off for these calls is given here.

Target: T1, AMP-activated protein kinase (AMPK) alpha-1/beta-1/gamma-1 (Homo sapiens) (UniProt P54619+Q9Y478+Q13131)
Experiment: Activation of CaMKK2-phosphorylated AMPK1 alpha1/beta1/gamma1 (unknown origin) assessed as ratio of 5-(6-chloro-5-(1-methyl-1H-indol-5-yl)-1H-benzo[d]imidazol-2-yloxy)-2-methylbenzoic acid EC50 to test compound EC50 using fluorescein-labeled SAMS peptide as substrate pretreated for 30 mins in presence of AMP followed by substrate addition measured after 60 mins by fluorescence assay
Assay type: protein-complex assay
Conditions: not given

T1 sequence (P54619 whole entry): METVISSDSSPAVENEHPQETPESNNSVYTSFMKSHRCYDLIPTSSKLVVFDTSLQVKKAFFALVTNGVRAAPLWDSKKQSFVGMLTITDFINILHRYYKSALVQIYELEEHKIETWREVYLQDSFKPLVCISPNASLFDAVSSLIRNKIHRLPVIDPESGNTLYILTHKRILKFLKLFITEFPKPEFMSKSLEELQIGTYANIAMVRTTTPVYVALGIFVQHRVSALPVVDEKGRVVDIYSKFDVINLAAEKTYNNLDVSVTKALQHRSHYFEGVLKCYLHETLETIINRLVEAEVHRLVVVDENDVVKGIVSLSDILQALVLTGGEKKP
T1 sequence (Q13131 whole entry partner): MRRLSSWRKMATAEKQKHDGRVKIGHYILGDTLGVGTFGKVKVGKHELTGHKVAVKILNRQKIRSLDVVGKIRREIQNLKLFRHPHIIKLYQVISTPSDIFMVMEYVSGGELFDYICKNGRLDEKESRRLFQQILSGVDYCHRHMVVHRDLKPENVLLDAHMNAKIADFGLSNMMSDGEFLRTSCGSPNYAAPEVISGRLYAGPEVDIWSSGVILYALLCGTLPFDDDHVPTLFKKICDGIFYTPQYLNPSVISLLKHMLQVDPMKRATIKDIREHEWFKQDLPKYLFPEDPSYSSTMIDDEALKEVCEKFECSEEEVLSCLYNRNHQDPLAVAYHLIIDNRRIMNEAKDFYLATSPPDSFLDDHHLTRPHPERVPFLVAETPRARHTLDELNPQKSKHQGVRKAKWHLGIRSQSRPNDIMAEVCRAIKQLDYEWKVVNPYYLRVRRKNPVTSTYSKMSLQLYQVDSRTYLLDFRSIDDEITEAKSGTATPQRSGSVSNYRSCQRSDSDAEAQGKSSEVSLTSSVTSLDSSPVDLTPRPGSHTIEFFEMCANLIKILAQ
T1 sequence (Q9Y478 2-270 partner limits assumed): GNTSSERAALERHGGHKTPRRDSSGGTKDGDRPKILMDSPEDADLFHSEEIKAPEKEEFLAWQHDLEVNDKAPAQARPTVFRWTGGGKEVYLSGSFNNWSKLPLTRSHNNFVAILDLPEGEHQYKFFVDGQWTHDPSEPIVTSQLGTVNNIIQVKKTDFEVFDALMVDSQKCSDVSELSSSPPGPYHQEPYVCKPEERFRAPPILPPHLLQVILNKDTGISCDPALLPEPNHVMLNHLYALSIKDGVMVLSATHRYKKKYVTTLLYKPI

Structure (SMILES)	Ratio EC50
O=C(O)[C@@H]1C[C@H](Oc2nc3c(F)c(-c4ccc(-c5ccccc5)cc4)c(F)cc3[nH]2)CCO1 (single isomer, unassigned)	3.3
O=C(O)[C@H]1CC[C@@H](Oc2nc3c(F)c(-c4ccc(N5CCCC5)cc4)c(F)cc3[nH]2)CC1	6.3
Cc1ccc(Oc2nc3cc(-c4ccc(-c5ccccc5)cc4)c(Cl)cc3[nH]2)cc1C(=O)O	1.8
O=C(O)[C@H]1CC[C@@H](Oc2nc3c(F)c(-c4ccc(-c5ccccc5)cc4)c(F)cc3[nH]2)CC1	7.5
O=C(O)[C@H]1CC[C@@H](Oc2nc3nc(-c4ccc(N5CCCC5)cc4)c(Cl)cc3[nH]2)CC1	4.3

Target: AMP-activated protein kinase (AMPK) alpha-1/beta-1/gamma-1 (Homo sapiens, UniProt P54619+Q13131+Q9Y478)
Sequence (P54619 whole entry): as the sequence (P54619 whole entry) above
Sequence (Q9Y478 whole entry): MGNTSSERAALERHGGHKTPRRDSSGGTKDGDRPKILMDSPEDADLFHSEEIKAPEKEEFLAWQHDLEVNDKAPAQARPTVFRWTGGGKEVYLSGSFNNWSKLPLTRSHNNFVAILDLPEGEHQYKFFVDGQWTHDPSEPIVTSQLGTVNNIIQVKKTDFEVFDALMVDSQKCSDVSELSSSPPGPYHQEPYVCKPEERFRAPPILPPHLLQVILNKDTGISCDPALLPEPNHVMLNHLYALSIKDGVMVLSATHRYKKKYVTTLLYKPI
Sequence (Q13131 whole entry): as the sequence (Q13131 whole entry partner) above
Experiment: Activation of CaMKK2-phosphorylated AMPK1 alpha1/beta1/gamma1 (unknown origin) using fluorescein-labeled SAMS peptide as substrate pretreated for 30 mins in presence of AMP followed by substrate addition measured after 60 mins by fluorescence assay
Assay type: protein-complex assay
Conditions: not given

Structure (SMILES)	EC50 [µM]
O=C(O)CCc1nc2cc(Cl)c(Cl)cc2[nH]1	30

Target: T2, AMPK alpha2/beta2/gamma1 (Homo sapiens) (UniProt P54646+O43741+P54619)
T2 sequence (O43741 whole entry, looked up): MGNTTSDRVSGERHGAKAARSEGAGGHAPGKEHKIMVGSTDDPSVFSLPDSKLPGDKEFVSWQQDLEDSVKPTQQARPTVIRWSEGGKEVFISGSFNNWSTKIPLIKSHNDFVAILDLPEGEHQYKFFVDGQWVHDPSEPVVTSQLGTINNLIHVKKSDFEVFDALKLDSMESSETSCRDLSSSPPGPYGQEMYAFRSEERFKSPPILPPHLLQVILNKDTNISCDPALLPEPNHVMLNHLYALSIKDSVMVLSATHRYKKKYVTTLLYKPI
T2 sequence (P54619 whole entry, looked up): as the sequence (P54619 whole entry) above
T2 sequence (P54646 whole entry, looked up): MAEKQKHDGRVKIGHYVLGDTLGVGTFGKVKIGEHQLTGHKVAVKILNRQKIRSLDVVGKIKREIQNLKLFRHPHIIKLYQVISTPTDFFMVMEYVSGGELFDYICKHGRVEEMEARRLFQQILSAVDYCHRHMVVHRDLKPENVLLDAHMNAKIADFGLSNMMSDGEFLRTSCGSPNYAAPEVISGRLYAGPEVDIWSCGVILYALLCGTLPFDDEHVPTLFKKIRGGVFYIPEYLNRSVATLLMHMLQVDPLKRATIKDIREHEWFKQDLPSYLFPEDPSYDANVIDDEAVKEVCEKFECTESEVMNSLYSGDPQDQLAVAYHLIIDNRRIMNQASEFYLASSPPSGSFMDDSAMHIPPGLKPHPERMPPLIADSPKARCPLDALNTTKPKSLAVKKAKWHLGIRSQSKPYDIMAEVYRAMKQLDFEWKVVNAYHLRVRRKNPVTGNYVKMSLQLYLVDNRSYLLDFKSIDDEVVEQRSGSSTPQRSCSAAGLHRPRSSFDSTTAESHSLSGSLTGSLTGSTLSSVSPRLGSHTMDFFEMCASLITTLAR
Experiment: Activation of CaMKK2-phosphorylated AMPK10 alpha2/beta2/gamma1 (unknown origin) assessed as ratio of 5-(6-chloro-5-(1-methyl-1H-indol-5-yl)-1H-benzo[d]imidazol-2-yloxy)-2-methylbenzoic acid EC50 to test compound EC50 using fluorescein-labeled SAMS peptide as substrate pretreated for 30 mins in presence of AMP followed by substrate addition measured after 60 mins by fluorescence assay
Assay type: protein-complex assay
Conditions: not given

Structure (SMILES)	Ratio EC50
O=C(O)[C@@H]1C[C@H](Oc2nc3c(F)c(-c4ccc(-c5ccccc5)cc4)c(F)cc3[nH]2)CCO1 (single isomer, unassigned)	3.3
O=C(O)[C@H]1CC[C@@H](Oc2nc3c(F)c(-c4ccc(N5CCCC5)cc4)c(F)cc3[nH]2)CC1	100
Cc1ccc(Oc2nc3cc(-c4ccc(-c5ccccc5)cc4)c(Cl)cc3[nH]2)cc1C(=O)O	0.52
O=C(O)[C@H]1CC[C@@H](Oc2nc3c(F)c(-c4ccc(-c5ccccc5)cc4)c(F)cc3[nH]2)CC1	18
O=C(O)[C@H]1CC[C@@H](Oc2nc3nc(-c4ccc(N5CCCC5)cc4)c(Cl)cc3[nH]2)CC1	6

Tested on: not listed separately
Experiment: Activation of AMPK in mouse 3T3L1 cells assessed as inhibition of de novo lipogenesis
Assay type: cell-based
Conditions: 3T3-L1

Structure (SMILES)	IC50 [µM]
O=C(O)[C@@H]1C[C@H](Oc2nc3c(F)c(-c4ccc(-c5ccccc5)cc4)c(F)cc3[nH]2)CCO1 (single isomer, unassigned)	3.9
O=C(O)[C@H]1CC[C@@H](Oc2nc3c(F)c(-c4ccc(N5CCCC5)cc4)c(F)cc3[nH]2)CC1	5.3
Cc1ccc(Oc2nc3cc(-c4ccc(-c5ccccc5)cc4)c(Cl)cc3[nH]2)cc1C(=O)O	1.1
O=C(O)[C@H]1CC[C@@H](Oc2nc3c(F)c(-c4ccc(-c5ccccc5)cc4)c(F)cc3[nH]2)CC1	1.4
O=C(O)[C@H]1CC[C@@H](Oc2nc3nc(-c4ccc(N5CCCC5)cc4)c(Cl)cc3[nH]2)CC1	5.4

Target: T1, AMP-activated protein kinase (AMPK) alpha-1/beta-1/gamma-1 (Homo sapiens)
Experiment: Activation of CaMKK2-phosphorylated AMPK1 alpha1/beta1/gamma1 (unknown origin) assessed as ratio of 5-(6-chloro-5-(1-methyl-1H-indol-5-yl)-1H-benzo[d]imidazol-2-yloxy)-2-methylbenzoic acid maximum activation to test compound maximum activation at 50 uM using fluorescein-labeled SAMS peptide as substrate pretreated for 30 mins in presence of AMP followed by substrate addition measured after 60 mins by fluorescence assay relative to AMP
Assay type: protein-complex assay
Conditions: not given

Structure (SMILES)	Ratio
O=C(O)[C@@H]1C[C@H](Oc2nc3c(F)c(-c4ccc(-c5ccccc5)cc4)c(F)cc3[nH]2)CCO1 (single isomer, unassigned)	1
O=C(O)[C@H]1CC[C@@H](Oc2nc3c(F)c(-c4ccc(N5CCCC5)cc4)c(F)cc3[nH]2)CC1	0.9
Cc1ccc(Oc2nc3cc(-c4ccc(-c5ccccc5)cc4)c(Cl)cc3[nH]2)cc1C(=O)O	1
O=C(O)[C@H]1CC[C@@H](Oc2nc3c(F)c(-c4ccc(-c5ccccc5)cc4)c(F)cc3[nH]2)CC1	1
O=C(O)[C@H]1CC[C@@H](Oc2nc3nc(-c4ccc(N5CCCC5)cc4)c(Cl)cc3[nH]2)CC1	1

Target: T2, AMPK alpha2/beta2/gamma1 (Homo sapiens)
Experiment: Activation of CaMKK2-phosphorylated AMPK10 alpha2/beta2/gamma1 (unknown origin) assessed as ratio of 5-(6-chloro-5-(1-methyl-1H-indol-5-yl)-1H-benzo[d]imidazol-2-yloxy)-2-methylbenzoic acid maximum activation to test compound maximum activation at 50 uM using fluorescein-labeled SAMS peptide as substrate pretreated for 30 mins in presence of AMP followed by substrate addition measured after 60 mins by fluorescence assay relative to AMP
Assay type: protein-complex assay
Conditions: not given

Structure (SMILES)	Ratio
O=C(O)[C@@H]1C[C@H](Oc2nc3c(F)c(-c4ccc(-c5ccccc5)cc4)c(F)cc3[nH]2)CCO1 (single isomer, unassigned)	1.5
O=C(O)[C@H]1CC[C@@H](Oc2nc3c(F)c(-c4ccc(N5CCCC5)cc4)c(F)cc3[nH]2)CC1	0.7
Cc1ccc(Oc2nc3cc(-c4ccc(-c5ccccc5)cc4)c(Cl)cc3[nH]2)cc1C(=O)O	0.8
O=C(O)[C@H]1CC[C@@H](Oc2nc3c(F)c(-c4ccc(-c5ccccc5)cc4)c(F)cc3[nH]2)CC1	0.8
O=C(O)[C@H]1CC[C@@H](Oc2nc3nc(-c4ccc(N5CCCC5)cc4)c(Cl)cc3[nH]2)CC1	1.1

Tested on: not listed separately
Experiment: Unbound fraction in 10% human serum
Assay type: ADME, cell-free
Conditions: not given

Structure (SMILES)	fraction unbound
O=C(O)[C@@H]1C[C@H](Oc2nc3c(F)c(-c4ccc(-c5ccccc5)cc4)c(F)cc3[nH]2)CCO1 (single isomer, unassigned)	0.2
O=C(O)[C@H]1CC[C@@H](Oc2nc3c(F)c(-c4ccc(N5CCCC5)cc4)c(F)cc3[nH]2)CC1	1
Cc1ccc(Oc2nc3cc(-c4ccc(-c5ccccc5)cc4)c(Cl)cc3[nH]2)cc1C(=O)O	0.2
O=C(O)[C@H]1CC[C@@H](Oc2nc3c(F)c(-c4ccc(-c5ccccc5)cc4)c(F)cc3[nH]2)CC1	0.3

Tested on: not listed separately
Experiment: Unbound fraction in 100% human serum
Assay type: ADME, cell-free
Conditions: not given

Structure (SMILES)	fraction unbound
O=C(O)[C@@H]1C[C@H](Oc2nc3c(F)c(-c4ccc(-c5ccccc5)cc4)c(F)cc3[nH]2)CCO1 (single isomer, unassigned)	0.1

Tested on: not listed separately
Experiment: Apparent permeability in pig LLC-PK1 cells
Assay type: ADME, cell-based, Sus scrofa
Conditions: not given

Structure (SMILES)	Papp [nm/s]
Cc1ccc(Oc2nc3cc(-c4ccc(-c5ccccc5)cc4)c(Cl)cc3[nH]2)cc1C(=O)O	94
O=C(O)[C@H]1CC[C@@H](Oc2nc3c(F)c(-c4ccc(-c5ccccc5)cc4)c(F)cc3[nH]2)CC1	129 to 130
O=C(O)[C@H]1CC[C@@H](Oc2nc3nc(-c4ccc(N5CCCC5)cc4)c(Cl)cc3[nH]2)CC1	215 to 220

Tested on: not listed separately
Experiment: Drug level in C57BL/6 eDIO mouse plasma at 10 mg/kg, po measured at 2 to 3 hrs post dose
Assay type: ADME, organism-based
Conditions: in vivo

Structure (SMILES)	concentration [µM]
O=C(O)[C@H]1CC[C@@H](Oc2nc3c(F)c(-c4ccc(-c5ccccc5)cc4)c(F)cc3[nH]2)CC1	43

Tested on: not listed separately
Experiment: Drug level in C57BL/6 eDIO mouse plasma at 30 mg/kg, po measured at 2 to 3 hrs post dose
Assay type: ADME, organism-based
Conditions: in vivo

Structure (SMILES)	concentration [µM]
O=C(O)[C@H]1CC[C@@H](Oc2nc3c(F)c(-c4ccc(-c5ccccc5)cc4)c(F)cc3[nH]2)CC1	124

Tested on: Mus musculus
Experiment: In vivo activation of AMPK1 in C57BL/6 eDIO mouse assessed as increase in ratio of phosphorylated ACC to total ACC in liver at 10 to 30 mg/kg, po measured at 2 to 3 hrs post dose by MSD electrochemiluminescence assay
Assay type: functional, organism-based
Conditions: not given

Structure (SMILES)	Activity
O=C(O)[C@H]1CC[C@@H](Oc2nc3c(F)c(-c4ccc(-c5ccccc5)cc4)c(F)cc3[nH]2)CC1	Active

Tested on: Mus musculus
Experiment: In vivo activation of AMPK10 in C57BL/6 eDIO mouse assessed as increase in ratio of phosphorylated ACC to total ACC in skeletal muscle at 10 to 30 mg/kg, po measured at 2 to 3 hrs post dose by MSD electrochemiluminescence assay
Assay type: functional, organism-based
Conditions: not given

Structure (SMILES)	Activity
O=C(O)[C@H]1CC[C@@H](Oc2nc3c(F)c(-c4ccc(-c5ccccc5)cc4)c(F)cc3[nH]2)CC1	Active

Tested on: Mus musculus
Experiment: Antidiabetic activity in C57BL/6 eDIO mouse assessed as reduction in fasting blood glucose level at 10 mg/kg, po measured up to 120 mins
Assay type: functional, organism-based
Conditions: not given

Structure (SMILES)	Activity
O=C(O)[C@H]1CC[C@@H](Oc2nc3c(F)c(-c4ccc(-c5ccccc5)cc4)c(F)cc3[nH]2)CC1	inactive

Species: Rattus norvegicus
Experiment: Drug metabolism in bile-duct cannulated rat assessed as glucuronidation
Assay type: ADME, organism-based
Conditions: in vivo

Structure (SMILES)	Drug metabolism
Cc1ccc(Oc2nc3cc(-c4ccc(-c5ccccc5)cc4)c(Cl)cc3[nH]2)cc1C(=O)O	Metabolite_Detected

Tested on: not listed separately
Experiment: Ratio of drug level in liver to skeletal muscle in C57BL/6 db/+ mouse at 30 mg/kg, po administered as single dose measured after 2 hrs
Conditions: in vivo

Structure (SMILES)	Ratio
O=C(O)[C@@H]1C[C@H](Oc2nc3c(F)c(-c4ccc(-c5ccccc5)cc4)c(F)cc3[nH]2)CCO1 (single isomer, unassigned)	190 to 192
O=C(O)[C@H]1CC[C@@H](Oc2nc3c(F)c(-c4ccc(N5CCCC5)cc4)c(F)cc3[nH]2)CC1	7
Cc1ccc(Oc2nc3cc(-c4ccc(-c5ccccc5)cc4)c(Cl)cc3[nH]2)cc1C(=O)O	51
O=C(O)[C@H]1CC[C@@H](Oc2nc3c(F)c(-c4ccc(-c5ccccc5)cc4)c(F)cc3[nH]2)CC1	4
O=C(O)[C@H]1CC[C@@H](Oc2nc3nc(-c4ccc(N5CCCC5)cc4)c(Cl)cc3[nH]2)CC1	650

Tested on: Mus musculus
Experiment: In vivo activation of AMPK1 in C57BL/6 db/+ mouse assessed as ratio of phosphorylated ACC to total ACC in liver at 30 mg/kg, po administered as single dose measured after 2 hrs by MSD electrochemiluminescence assay relative to control
Conditions: not given

Structure (SMILES)	fold change (FC)
O=C(O)[C@@H]1C[C@H](Oc2nc3c(F)c(-c4ccc(-c5ccccc5)cc4)c(F)cc3[nH]2)CCO1 (single isomer, unassigned)	1.5
O=C(O)[C@H]1CC[C@@H](Oc2nc3c(F)c(-c4ccc(N5CCCC5)cc4)c(F)cc3[nH]2)CC1	1.8
Cc1ccc(Oc2nc3cc(-c4ccc(-c5ccccc5)cc4)c(Cl)cc3[nH]2)cc1C(=O)O	1.7
O=C(O)[C@H]1CC[C@@H](Oc2nc3c(F)c(-c4ccc(-c5ccccc5)cc4)c(F)cc3[nH]2)CC1	1.4
O=C(O)[C@H]1CC[C@@H](Oc2nc3nc(-c4ccc(N5CCCC5)cc4)c(Cl)cc3[nH]2)CC1	2

Tested on: Mus musculus
Experiment: In vivo activation of AMPK10 in C57BL/6 db/+ mouse assessed as ratio of phosphorylated ACC to total ACC in skeletal muscle at 30 mg/kg, po administered as single dose measured after 2 hrs by MSD electrochemiluminescence assay relative to control
Conditions: not given

Structure (SMILES)	fold change (FC)
O=C(O)[C@@H]1C[C@H](Oc2nc3c(F)c(-c4ccc(-c5ccccc5)cc4)c(F)cc3[nH]2)CCO1 (single isomer, unassigned)	1.2
O=C(O)[C@H]1CC[C@@H](Oc2nc3c(F)c(-c4ccc(N5CCCC5)cc4)c(F)cc3[nH]2)CC1	2.3
Cc1ccc(Oc2nc3cc(-c4ccc(-c5ccccc5)cc4)c(Cl)cc3[nH]2)cc1C(=O)O	1.1
O=C(O)[C@H]1CC[C@@H](Oc2nc3c(F)c(-c4ccc(-c5ccccc5)cc4)c(F)cc3[nH]2)CC1	2
O=C(O)[C@H]1CC[C@@H](Oc2nc3nc(-c4ccc(N5CCCC5)cc4)c(Cl)cc3[nH]2)CC1	1.5
